# Assays:
# [1] = system: HeLa; test: Cytotoxicity against human HeLa cells assessed as cell growth inhibition at 3.125 to 100 uM incubated for 72 hrs and measured after 2 hrs by microplate reader based WST-1 assay relative to control; assay type: functional
# [2] = system: HCT-116; test: Cytotoxicity against human HCT116 cells assessed as cell growth inhibition at 3.125 to 100 uM incubated for 72 hrs and measured after 2 hrs by microplate reader based WST-1 assay relative to control; assay type: functional
# [3] = system: HepG2; test: Cytotoxicity against human HepG2 cells assessed as cell growth inhibition at 3.125 to 100 uM incubated for 72 hrs and measured after 2 hrs by microplate reader based WST-1 assay relative to control; assay type: functional
# [4] = system: MCF7; test: Cytotoxicity against human MCF7 cells assessed as cell growth inhibition at 3.125 to 100 uM incubated for 72 hrs and measured after 2 hrs by microplate reader based WST-1 assay relative to control; assay type: functional
# [5] = system: HeLa; test: Cytotoxicity against human HeLa cells assessed as increase in growth inhibition by measuring decrease in cell viability incubated for 72 hrs and measured after 2 hrs by microplate reader based WST-1 assay; assay type: functional
# [6] = system: HCT-116; test: Cytotoxicity against human HCT116 cells assessed as increase in growth inhibition by measuring decrease in cell viability incubated for 72 hrs and measured after 2 hrs by microplate reader based WST-1 assay; assay type: functional
# [7] = system: HepG2; test: Cytotoxicity against human HepG2 cells assessed as increase in growth inhibition by measuring decrease in cell viability incubated for 72 hrs and measured after 2 hrs by microplate reader based WST-1 assay; assay type: functional
# [8] = system: MCF7; test: Induction of apoptosis in human MCF7 cells assessed as increase in caspase 9 activation by measuring fold increase in caspase 9 level by fluorescence based solid phase sandwich ELISA; assay type: functional
# [9] = system: HeLa; test: Induction of apoptosis in human HeLa cells assessed as increase in caspase 9 activation by measuring fold increase in caspase 9 level by fluorescence based solid phase sandwich ELISA; assay type: functional
# [10] = system: MCF7; test: Cytotoxicity against human MCF7 cells assessed as increase in growth inhibition by measuring decrease in cell viability incubated for 72 hrs and measured after 2 hrs by microplate reader based WST-1 assay; assay type: functional
# [11] = target: T1, Epidermal growth factor receptor (Homo sapiens, UniProt P00533); test: Inhibition of EGFR-TK in human HeLa cells overexpressing EGFR incubated for 18 to 24 hrs by kinase assay; assay type: cell-based
# [12] = target: T2, DNA topoisomerase II (Homo sapiens, UniProt P11388+Q02880); test: Inhibition of DNA topoisomerase 2 in human HeLa cells at 25 uM incubated for 18 to 24 hrs by kinase assay relative to control; assay type: cell-based
# [13] = system: HeLa; test: Induction of apoptosis in human HeLa cells assessed as increase in caspase 3 activation by measuring fold increase in caspase 3 level by fluorescence based solid phase sandwich ELISA; assay type: functional
# [14] = target: T2, DNA topoisomerase II; test: Inhibition of DNA topoisomerase 2 in human HeLa cells at 0.2 uM incubated for 18 to 24 hrs by kinase assay relative to control; assay type: cell-based
# [15] = target: T2, DNA topoisomerase II; test: Inhibition of DNA topoisomerase 2 in human HeLa cells at 5 uM incubated for 18 to 24 hrs by kinase assay relative to control; assay type: cell-based
# [16] = target: T2, DNA topoisomerase II; test: Inhibition of DNA topoisomerase 2 in human HeLa cells at 1 uM incubated for 18 to 24 hrs by kinase assay relative to control; assay type: cell-based
# [17] = target: T2, DNA topoisomerase II; test: Inhibition of DNA topoisomerase 2 in human HeLa cells incubated for 18 to 24 hrs by kinase assay; assay type: cell-based
# [18] = target: T1, Epidermal growth factor receptor; test: Inhibition of EGFR-TK in human MCF7 cells overexpressing EGFR incubated for 18 to 24 hrs by kinase assay; assay type: cell-based
# [19] = system: MCF7; test: Induction of apoptosis in human MCF7 cells assessed as early apoptotic cells after 24 hrs by Annexin V-FITC/propidium iodide staining-based FACS analysis (reference value: 0.29%); assay type: functional
# [20] = system: MCF7; test: Induction of apoptosis in human MCF7 cells assessed as late apoptotic cells after 24 hrs by Annexin V-FITC/propidium iodide staining-based FACS analysis (reference value: 0.22%); assay type: functional
# [21] = target: T2, DNA topoisomerase II; test: Inhibition of DNA topoisomerase 2 in human MCF7 cells at 5 uM incubated for 18 to 24 hrs by kinase assay relative to control; assay type: cell-based
# [22] = system: MCF7; test: Induction of apoptosis in human MCF7 cells assessed as increase in caspase 3 activation by measuring fold increase in caspase 3 level by fluorescence based solid phase sandwich ELISA; assay type: functional
# [23] = target: T2, DNA topoisomerase II; test: Inhibition of DNA topoisomerase 2 in human MCF7 cells at 1 uM incubated for 18 to 24 hrs by kinase assay relative to control; assay type: cell-based
# [24] = system: MCF7; test: Induction of apoptosis in human MCF7 cells after 24 hrs by Annexin V-FITC/propidium iodide staining-based FACS analysis; assay type: functional, cell-based
# [25] = system: MCF7; test: Induction of apoptosis in human MCF7 cells assessed as viable cells after 24 hrs by Annexin V-FITC/propidium iodide staining-based FACS analysis (reference value: 99.34%); assay type: functional
# [26] = target: T2, DNA topoisomerase II; test: Inhibition of DNA topoisomerase 2 in human MCF7 cells at 0.2 uM incubated for 18 to 24 hrs by kinase assay relative to control; assay type: cell-based
# [27] = system: MCF7; test: Cell cycle arrest in human MCF7 cells assessed as accumulation at G2/M phase at IC50 after 24 hrs by propidium iodide staining based FACS analysis (reference value: 4.82%); assay type: functional
# [28] = system: MCF7; test: Induction of apoptosis in human MCF7 cells assessed as necrotic cells after 24 hrs by Annexin V-FITC/propidium iodide staining-based FACS analysis (reference value: 0.15%); assay type: functional
# [29] = target: T2, DNA topoisomerase II; test: Inhibition of DNA topoisomerase 2 in human MCF7 cells incubated for 18 to 24 hrs by kinase assay; assay type: cell-based
# [30] = system: MCF7; test: Cell cycle arrest in human MCF7 cells assessed as accumulation at S phase at IC50 after 24 hrs by propidium iodide staining based FACS analysis (reference value: 27.13%); assay type: functional
# [31] = system: MCF7; test: Cell cycle arrest in human MCF7 cells assessed as accumulation at pre G1/apoptotic phase at IC50 after 24 hrs by propidium iodide staining based FACS analysis (reference value: 0.66%); assay type: functional
# [32] = target: T2, DNA topoisomerase II; test: Inhibition of DNA topoisomerase 2 in human MCF7 cells at 25 uM incubated for 18 to 24 hrs by kinase assay relative to control; assay type: cell-based
# [33] = system: MCF7; test: Cell cycle arrest in human MCF7 cells assessed as accumulation at G0/G1 phase at IC50 after 24 hrs by propidium iodide staining based FACS analysis (reference value: 67.39%); assay type: functional
# [34] = Homo sapiens, HeLa, read-out: IC50
# [35] = Homo sapiens, HCT-116, read-out: IC50
# [36] = Homo sapiens, HepG2, read-out: IC50
# [37] = Homo sapiens, MCF7, read-out: IC50
# T1 sequence (P00533 whole entry): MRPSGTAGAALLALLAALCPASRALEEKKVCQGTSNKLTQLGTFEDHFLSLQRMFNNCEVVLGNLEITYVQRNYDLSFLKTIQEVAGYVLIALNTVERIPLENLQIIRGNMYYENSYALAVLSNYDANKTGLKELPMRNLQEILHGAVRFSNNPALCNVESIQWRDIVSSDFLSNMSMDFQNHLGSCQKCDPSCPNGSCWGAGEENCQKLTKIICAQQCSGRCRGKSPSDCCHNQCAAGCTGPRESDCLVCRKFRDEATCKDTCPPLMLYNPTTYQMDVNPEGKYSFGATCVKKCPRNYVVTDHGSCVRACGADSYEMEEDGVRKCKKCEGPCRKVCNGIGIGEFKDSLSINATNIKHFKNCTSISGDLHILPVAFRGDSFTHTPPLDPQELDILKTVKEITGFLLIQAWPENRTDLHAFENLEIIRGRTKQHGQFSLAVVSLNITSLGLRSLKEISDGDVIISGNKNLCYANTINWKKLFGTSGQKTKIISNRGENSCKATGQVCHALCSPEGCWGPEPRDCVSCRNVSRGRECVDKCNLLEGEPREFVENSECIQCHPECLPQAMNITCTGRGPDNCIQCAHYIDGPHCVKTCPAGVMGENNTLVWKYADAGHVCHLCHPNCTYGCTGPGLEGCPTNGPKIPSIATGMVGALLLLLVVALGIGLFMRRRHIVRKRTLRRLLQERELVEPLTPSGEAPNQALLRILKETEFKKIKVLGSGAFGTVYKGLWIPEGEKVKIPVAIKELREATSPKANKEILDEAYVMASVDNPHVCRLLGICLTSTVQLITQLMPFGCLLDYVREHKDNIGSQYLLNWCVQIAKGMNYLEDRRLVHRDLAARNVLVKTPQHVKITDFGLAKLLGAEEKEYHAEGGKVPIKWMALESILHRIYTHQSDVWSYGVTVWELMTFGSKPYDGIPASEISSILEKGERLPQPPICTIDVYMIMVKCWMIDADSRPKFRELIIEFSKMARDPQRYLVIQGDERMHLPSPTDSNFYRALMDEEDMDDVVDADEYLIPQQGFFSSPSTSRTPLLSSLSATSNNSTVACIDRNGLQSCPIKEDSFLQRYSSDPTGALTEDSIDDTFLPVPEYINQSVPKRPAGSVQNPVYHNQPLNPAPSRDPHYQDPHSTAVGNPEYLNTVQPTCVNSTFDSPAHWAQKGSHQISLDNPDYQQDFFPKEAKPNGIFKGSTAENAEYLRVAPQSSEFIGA
SMILES,growth inhibition (GI) [1] [%],growth inhibition (GI) [2] [%],growth inhibition (GI) [3] [%],growth inhibition (GI) [4] [%],"IC50 [5, 34] [µM]","IC50 [6, 35] [µM]","IC50 [10, 37] [µM]",other results
Cc1ccc(-n2cc(COC(c3cccs3)c3cc4ccccc4nc3Cl)nn2)cc1 (centres undefined),<10,13.03,18.78,<10,,,,
Cc1cc(C)c(COC(c2cccs2)c2cc3ccccc3nc2Cl)c(C)c1 (centres undefined),42.48,26.37,24.76,21.49,,,,
COc1ccc(-n2cc(COC(c3cccs3)c3cc4ccccc4nc3Cl)nn2)cc1 (centres undefined),<10,32.52,<10,<10,,,,
O=c1[nH]cc(F)c(=O)[nH]1 [FLUOROURACIL],,,,,20.4,63.9,> 100,"IC50 [7, 36]: > 100 µM; fold change (FC) [8]: 26 - 26.1; fold change (FC) [9]: 94.4"
C#CCOC(c1cccs1)c1cc2ccccc2nc1Cl (centres undefined),,,,,34.7,> 100,> 100,"IC50 [7, 36]: > 100 µM"
FC(F)(F)c1ccc(-n2cc(COC(c3cccs3)c3cc4ccccc4nc3Cl)nn2)cc1 (centres undefined),<10,35.86,<10,<10,,,,
Cc1ccc(-c2cc(COC(c3cccs3)c3cc4ccccc4nc3Cl)on2)cc1 (centres undefined),<10,43.91,31.77,22.03,,115,,IC50 ([5]; hela): Not Active; IC50 ([7]; hepg2): Not Active; IC50 ([10]; mcf7): Not Active
O=[N+]([O-])c1ccc(-n2cc(COC(c3cccs3)c3cc4ccccc4nc3Cl)nn2)cc1 (centres undefined),<10,<10,<10,<10,,,,
COc1ccc(-c2cc(COC(c3cccs3)c3cc4ccccc4nc3Cl)on2)cc1OC (centres undefined),<10,<10,<10,<10,,,,
OC(c1cccs1)c1cc2ccccc2nc1Cl (centres undefined),,,,,17.5,69.3,80.6,"IC50 [11]: 6.3 µM; inhibition [12]: 80.7%; IC50 [7, 36]: 80.8 µM; fold change (FC) [13]: 12.8; fold change (FC) [9]: 72.6; inhibition [14]: 3.85%; inhibition [15]: 45%; inhibition [16]: 20%; IC50 [17]: 4.95 µM"
Fc1ccc(COC(c2cccs2)c2cc3ccccc3nc2Cl)cc1 (centres undefined),66.21,<10,30.53,64.97,73.9,,38.4,IC50 [18]: 2.75 µM; Activity [19]: 7.03%; Activity [20]: 8.42%; inhibition [21]: 88.5%; fold change (FC) [22]: 30.8; inhibition [23]: 70.8%; IC50 ([6]; hct-116): Not Active; Activity [24]: Dose-dependent effect; Activity [25]: 83.96%; inhibition [26]: 43.3%; IC50 ([7]; hepg2): Not Active; Activity [27]: 19.33%; fold change (FC) [8]: 40.6; Activity [28]: 0.83%; IC50 [29]: 0.23 µM; Activity [30]: 17.19%; Activity [31]: 16.28%; inhibition [32]: 93.7%; Activity [33]: 47.2%

# Reference: ChEMBL document CHEMBL4396926, “Design, Synthesis and Anticancer Evaluation of New Substituted Thiophene-Quinoline Derivatives” (Bioorg Med Chem, 2019)
